# ChEMBL document CHEMBL1135358, “Antifungal sordarins. Synthesis and structure-activity relationships of 3'-O-substituted derivatives” (2002)
# Legend:
# Format in all cases: functional
# Candida albicans [1] = experiment: In vitro Minimum inhibitory concentration (MIC) for antifungal activity against Candida albicans 2402
# Cryptococcus neoformans [2] = experiment: In vitro Minimum inhibitory concentration (MIC) for antifungal activity against Cryptococcus neoformans 2867
# Candida albicans [3] = experiment: In vitro Minimum inhibitory concentration (MIC) for antifungal activity against Candida albicans 2005
# Candida albicans [4] = experiment: In vitro Minimum inhibitory concentration (MIC) for antifungal activity against Candida albicans 1208
# Kluyveromyces marxianus [5] = experiment: In vitro Minimum inhibitory concentration (MIC) for antifungal activity against Candida pseudotropicalis 2371
# Candida tropicalis [6] = experiment: In vitro Minimum inhibitory concentration (MIC) for antifungal activity against Candida tropicalis 2808
# Kluyveromyces marxianus [7] = experiment: In vitro Minimum inhibitory concentration (MIC) for antifungal activity against Candida pseudotropicalis 2371E
# Candida albicans [8] = experiment: In vitro Minimum inhibitory concentration (MIC) for antifungal activity against Candida albicans 2005E
# Cryptococcus neoformans [9] = experiment: In vitro Minimum inhibitory concentration (MIC) for antifungal activity against Cryptococcus neoformans 2867E
# Candida albicans [10] = experiment: In vitro Minimum inhibitory concentration (MIC) for antifungal activity against Candida albicans 1208E
# Candida tropicalis [11] = experiment: In vitro Minimum inhibitory concentration (MIC) for antifungal activity against Candida tropicalis 2808E
# Candida albicans [12] = experiment: In vitro Minimum inhibitory concentration (MIC) for antifungal activity against Candida albicans 2402E
Compound,MIC (Candida albicans [1]) [µg/mL],MIC (Cryptococcus neoformans [2]) [µg/mL],MIC (Candida albicans [3]) [µg/mL],MIC (Candida albicans [4]) [µg/mL],MIC (Kluyveromyces marxianus [5]) [µg/mL],MIC (Candida tropicalis [6]) [µg/mL],MIC (Kluyveromyces marxianus [7]) [µg/mL],MIC (Candida albicans [8]) [µg/mL],MIC (Cryptococcus neoformans [9]) [µg/mL],MIC (Candida albicans [10]) [µg/mL],MIC (Candida tropicalis [11]) [µg/mL],MIC (Candida albicans [12]) [µg/mL]
"CCCCC(C)C(=O)OC1C(O)[C@H](OCC23C[C@@H]4[C@H](C)CC[C@H]4C4(C=O)CC2C=C(C(C)C)C34C(=O)O)O[C@H](C)[C@H]1OC (single isomer, unassigned)",0.06,8,0.008,0.12,0.06,0.25,–,–,–,–,–,–
CO[C@@H]1[C@@H](C)O[C@@H](OCC23C[C@@H]4[C@H](C)CC[C@H]4C4(C=O)CC2C=C(C(C)C)C34C(=O)O)C(O)[C@@H]1OC(=O)OCc1ccccc1 (some centres undefined),8,> 62,2,8,2,8,–,–,–,–,–,–
"CCCC(=O)OC1C(O)[C@H](OCC23C[C@@H]4[C@H](C)CC[C@H]4C4(C=O)CC2C=C(C(C)C)C34C(=O)O)O[C@H](C)[C@H]1OC (single isomer, unassigned)",2,> 125,0.25,1,0.5,2,–,–,–,–,–,–
"COCC(=O)OC1C(O)[C@H](OCC23C[C@@H]4[C@H](C)CC[C@H]4C4(C=O)CC2C=C(C(C)C)C34C(=O)O)O[C@H](C)[C@H]1OC (single isomer, unassigned)",125,125,62,> 125,16,> 125,–,–,–,–,–,–
"CCCCCCOC1[C@H](O)[C@H](OCC23C[C@@H]4[C@H](C)CC[C@H]4C4(C=O)CC2C=C(C(C)C)C34C(=O)O)O[C@H](C)[C@H]1OC (single isomer, unassigned)",–,–,–,–,–,–,0.25,0.25,31,4,1,2
"CCCCCC(=O)OC1C(O)[C@H](OCC23C[C@@H]4[C@H](C)CC[C@H]4C4(C=O)CC2C=C(C(C)C)C34C(=O)O)O[C@H](C)[C@H]1OC (single isomer, unassigned)",0.25,16,0.015,0.25,0.01,0.03,–,–,–,–,–,–
"CCCCCCCCCC(=O)OC1C(O)[C@H](OCC23C[C@@H]4[C@H](C)CC[C@H]4C4(C=O)CC2C=C(C(C)C)C34C(=O)O)O[C@H](C)[C@H]1OC (single isomer, unassigned)",1,1,0.25,1,0.25,8,–,–,–,–,–,–
"CCCCCCCC(=O)OC1C(O)[C@H](OCC23C[C@@H]4[C@H](C)CC[C@H]4C4(C=O)CC2C=C(C(C)C)C34C(=O)O)O[C@H](C)[C@H]1OC (single isomer, unassigned)",0.03,0.25,< 0.001,0.06,0.004,0.06,–,–,–,–,–,–
CCCCCCCCOC(=O)O[C@H]1C(O)[C@H](OCC23C[C@@H]4[C@H](C)CC[C@H]4C4(C=O)CC2C=C(C(C)C)C34C(=O)O)O[C@H](C)[C@H]1OC (some centres undefined),0.5,8,0.25,1,0.12,8,–,–,–,–,–,–
"CO[C@H]1C(OC(=O)CCCCCl)C(O)[C@H](OCC23C[C@@H]4[C@H](C)CC[C@H]4C4(C=O)CC2C=C(C(C)C)C34C(=O)O)O[C@@H]1C (single isomer, unassigned)",2,16,0.12,2,0.25,1,–,–,–,–,–,–
"CO[C@H]1C(OC(=O)c2ccco2)C(O)[C@H](OCC23C[C@@H]4[C@H](C)CC[C@H]4C4(C=O)CC2C=C(C(C)C)C34C(=O)O)O[C@@H]1C (single isomer, unassigned)",16,> 125,2,16,4,8,–,–,–,–,–,–
CCCCCC(=O)O[C@H]1[C@H](OC(=O)CCCCC)[C@H](OCC23C[C@@H]4[C@H](C)CC[C@H]4C4(C=O)CC2C=C(C(C)C)C34C(=O)O)O[C@H](C)[C@H]1OC (some centres undefined),–,–,–,–,–,–,> 125,4,> 125,8,> 125,8
CCC/C=C(\C)C(=O)O[C@H]1C(O)[C@H](OCC23C[C@@H]4[C@H](C)CC[C@H]4C4(C=O)CC2C=C(C(C)C)C34C(=O)O)O[C@H](C)[C@H]1OC (some centres undefined),0.5,62,0.015,1,0.12,0.5,–,–,–,–,–,–
CCCCCCCCNC(=O)O[C@H]1C(O)[C@H](OCC23C[C@@H]4[C@H](C)CC[C@H]4C4(C=O)CC2C=C(C(C)C)C34C(=O)O)O[C@H](C)[C@H]1OC (some centres undefined),2,31,0.06,4,1,2,–,–,–,–,–,–
C/C=C/C=C(\C)C(=O)O[C@H]1C(O)[C@H](OCC23C[C@@H]4[C@H](C)CC[C@H]4C4(C=O)CC2C=C(C(C)C)C34C(=O)O)O[C@H](C)[C@H]1OC (some centres undefined),0.03,0.25,0.015,0.25,0.03,0.06,–,–,–,–,–,–
"CCCCCC(=O)O[C@@H]1[C@H](OCC23C[C@@H]4[C@H](C)CC[C@H]4C4(C=O)CC2C=C(C(C)C)C34C(=O)O)O[C@H](C)C(OC)[C@H]1O (single isomer, unassigned)",–,–,–,–,–,–,31,8,31,31,62,31
"CO[C@H]1C(OC(=O)c2ccccc2)C(O)[C@H](OCC23C[C@@H]4[C@H](C)CC[C@H]4C4(C=O)CC2C=C(C(C)C)C34C(=O)O)O[C@@H]1C (single isomer, unassigned)",1,> 125,0.12,1,0.25,0.5,–,–,–,–,–,–
"COC1C(O)C(O)[C@H](OCC23C[C@@H]4[C@H](C)CC[C@H]4C4(C=O)CC2C=C(C(C)C)C34C(=O)O)O[C@@H]1C (single isomer, unassigned)",31,> 125,8,31,16,16,–,–,–,–,–,–
CO[C@H]1[C@@H](OC(=O)OCc2ccccc2)[C@H](OC(=O)OCc2ccccc2)[C@H](OCC23C[C@@H]4[C@H](C)CC[C@H]4C4(C=O)CC2C=C(C(C)C)C34C(=O)O)O[C@@H]1C (some centres undefined),–,–,–,–,–,–,> 62,62,> 62,> 62,> 62,> 62
